US20220046923A1, “HERBICIDAL CINNOLINIUM COMPOUNDS” (SYNGENTA CROP PROTECTION AG, priority 2018, published 2022)

Legend:
Experiment in all cases: Post-emergence efficacy, glasshouse spray test
Type in all cases: in vivo
Conditions in all cases: evaluated after 13 days
[1] = system: Amaranthus palmeri (AMAPA)
Method in brief: (§1)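 Plants sown in standard soil were grown 14 days in a glasshouse (24/16 °C day/night, 14 h light, 65% humidity) and then sprayed post-emergence. Compound in acetone/IF50 emulsifier mix was diluted in 0.25% or 1% Empicol ESC70 + 1% ammonium sulphate. Damage was scored after 13 days (0 = none, 100 = total).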

[2] = system: Chenopodium album (CHEAL)
Method in brief: as §1

[3] = system: Digitaria sanguinalis (DIGSA)
Method in brief: as §1

[4] = system: Echinochloa crus-galli (ECHCG)
Method in brief: as §1

Eleusine indica (ELEIN) = system: Eleusine indica (ELEIN)
Method in brief: as §1

[5] = system: Euphorbia heterophylla (EPHHL)
Method in brief: as §1

[6] = system: Ipomoea hederacea (IPOHE)
Method in brief: as §1

Lolium perenne (LOLPE) = system: Lolium perenne (LOLPE)
Method in brief: as §1

Setaria faberi (SETFA) = system: Setaria faberi (SETFA)
Method in brief: as §1

[7] = Amaranthus palmeri, post-emergence, 312 h, application rate 1000 g/Ha, read-out: Control of weed species AMAPA after post-emergence application (100=total damage to plant; 0=no damage to plant)
[8] = Chenopodium album, post-emergence, 312 h, application rate 1000 g/Ha, read-out: Control of weed species CHEAL after post-emergence application (100=total damage to plant; 0=no damage to plant)
[9] = Digitaria sanguinalis, post-emergence, 312 h, application rate 1000 g/Ha, read-out: Control of weed species DIGSA after post-emergence application (100=total damage to plant; 0=no damage to plant)
[10] = Echinochloa crus-galli, post-emergence, 312 h, application rate 1000 g/Ha, read-out: Control of weed species ECHCG after post-emergence application (100=total damage to plant; 0=no damage to plant)
[11] = Eleusine indica, post-emergence, 312 h, application rate 1000 g/Ha, read-out: Control of weed species ELEIN after post-emergence application (100=total damage to plant; 0=no damage to plant)
[12] = Euphorbia heterophylla, post-emergence, 312 h, application rate 1000 g/Ha, read-out: Control of weed species EPHHL after post-emergence application (100=total damage to plant; 0=no damage to plant)
[13] = Ipomoea hederacea, post-emergence, 312 h, application rate 1000 g/Ha, read-out: Control of weed species IPOHE after post-emergence application (100=total damage to plant; 0=no damage to plant)
[14] = Lolium perenne, post-emergence, 312 h, application rate 1000 g/Ha, read-out: Control of weed species LOLPE after post-emergence application (100=total damage to plant; 0=no damage to plant)
[15] = Setaria faberi, post-emergence, 312 h, application rate 1000 g/Ha, read-out: Control of weed species SETFA after post-emergence application (100=total damage to plant; 0=no damage to plant)

| Compound | pest or weed control at 1000 g/ha [1, 7] [%] | pest or weed control at 1000 g/ha [2, 8] [%] | pest or weed control at 1000 g/ha [3, 9] [%] | pest or weed control at 1000 g/ha [4, 10] [%] | pest or weed control at 1000 g/ha (Eleusine indica (ELEIN); [11]) [%] | pest or weed control at 1000 g/ha [5, 12] [%] | pest or weed control at 1000 g/ha [6, 13] [%] | pest or weed control at 1000 g/ha (Lolium perenne (LOLPE); [14]) [%] | pest or weed control at 1000 g/ha (Setaria faberi (SETFA); [15]) [%] | further results |
| --- | --- | --- | --- | --- | --- | --- | --- | --- | --- | --- |
| Cc1ccc2n[n+](CCS(=O)(=O)[O-])ccc2c1 [Compound A32] | 90 | 90 | 70 | 80 | 90 | 90 | 70 | 30 | 60 |  |
| COc1ccc2n[n+](CCS(=O)(=O)[O-])ccc2c1 [Compound A37] | 0 | 0 | 60 | 50 | 60 | 20 | 10 | 20 | 40 |  |
| COc1c[n+](CCS(=O)(=O)[O-])nc2ccccc12 [Compound A38] | 20 | 40 | 20 | 30 | 10 | 30 | 30 | 10 | 10 |  |
| O=S(=O)([O-])CCC[n+]1cc(C(Cl)Cl)c2ccccc2n1 [Compound A39, 3-[4-(dichloromethyl)cinnolin-2-ium-2-yl]propane-1-sulfonate] | 10 | 20 | 10 | 10 | 10 | 40 | 30 | 0 | 0 |  |
| O=S(=O)([O-])CCC[n+]1cc(C(Cl)(Cl)Cl)c2ccccc2n1 [Compound A40] |  |  |  |  |  |  |  |  |  | pest or weed control at 500 g/ha ([1]; Amaranthus palmeri, post-emergence, 312 h, application rate 500 g/Ha, read-out: Control of weed species AMAPA after post-emergence application (100=total damage to plant; 0=no damage to plant)): 50%; pest or weed control at 500 g/ha ([2]; Chenopodium album, post-emergence, 312 h, application rate 500 g/Ha, read-out: Control of weed species CHEAL after post-emergence application (100=total damage to plant; 0=no damage to plant)): 50%; pest or weed control at 500 g/ha ([3]; Digitaria sanguinalis, post-emergence, 312 h, application rate 500 g/Ha, read-out: Control of weed species DIGSA after post-emergence application (100=total damage to plant; 0=no damage to plant)): 10%; pest or weed control at 500 g/ha ([4]; Echinochloa crus-galli, post-emergence, 312 h, application rate 500 g/Ha, read-out: Control of weed species ECHCG after post-emergence application (100=total damage to plant; 0=no damage to plant)): 30%; pest or weed control at 500 g/ha (Eleusine indica (ELEIN); Eleusine indica, post-emergence, 312 h, application rate 500 g/Ha, read-out: Control of weed species ELEIN after post-emergence application (100=total damage to plant; 0=no damage to plant)): 20%; pest or weed control at 500 g/ha ([5]; Euphorbia heterophylla, post-emergence, 312 h, application rate 500 g/Ha, read-out: Control of weed species EPHHL after post-emergence application (100=total damage to plant; 0=no damage to plant)): 40%; pest or weed control at 500 g/ha ([6]; Ipomoea hederacea, post-emergence, 312 h, application rate 500 g/Ha, read-out: Control of weed species IPOHE after post-emergence application (100=total damage to plant; 0=no damage to plant)): 50%; pest or weed control at 500 g/ha (Lolium perenne (LOLPE); Lolium perenne, post-emergence, 312 h, application rate 500 g/Ha, read-out: Control of weed species LOLPE after post-emergence application (100=total damage to plant; 0=no damage to plant)): 0%; pest or weed control at 500 g/ha (Setaria faberi (SETFA); Setaria faberi, post-emergence, 312 h, application rate 500 g/Ha, read-out: Control of weed species SETFA after post-emergence application (100=total damage to plant; 0=no damage to plant)): 0% |
| O=S(=O)([O-])NCC[n+]1ccc2ccccc2n1 [Compound A41] | 100 | 100 | 80 | 30 | 100 | 100 | 80 | 70 | 90 |  |
| O=S(=O)(O)CC[n+]1ccc2cccc(I)c2n1 [Compound A42, 2-(8-iodocinnolin-2-ium-2-yl)ethanesulfonic acid 2,2,2-trifluoroacetate] | 90 | 50 | 40 | 20 | 80 | 50 | 70 | 10 | 50 |  |
| CC(CC[n+]1ccc2ccccc2n1)S(=O)(=O)[O-] (stereo not drawn) [Compound A43, 4-cinnolin-2-ium-2-ylbutane-2-sulfonate] | 100 | 100 | 80 | 70 | 100 | 100 | 80 | 40 | 70 |  |
| CSc1c[n+](CCS(=O)(=O)O)nc2ccccc12.O=C([O-])C(F)(F)F [Compound A44] |  |  |  |  |  |  |  |  |  | Control of weed species AMAPA after post-emergence application (100=total damage to plant; 0=no damage to plant) ([1]; application rate 1000 g/Ha): 30; Control of weed species CHEAL after post-emergence application (100=total damage to plant; 0=no damage to plant) ([2]; application rate 1000 g/Ha): 30; Control of weed species DIGSA after post-emergence application (100=total damage to plant; 0=no damage to plant) ([3]; application rate 1000 g/Ha): 30; Control of weed species ECHCG after post-emergence application (100=total damage to plant; 0=no damage to plant) ([4]; application rate 1000 g/Ha): 10; Control of weed species ELEIN after post-emergence application (100=total damage to plant; 0=no damage to plant) (Eleusine indica (ELEIN); application rate 1000 g/Ha): 70; Control of weed species EPHHL after post-emergence application (100=total damage to plant; 0=no damage to plant) ([5]; application rate 1000 g/Ha): 90; Control of weed species IPOHE after post-emergence application (100=total damage to plant; 0=no damage to plant) ([6]; application rate 1000 g/Ha): 20; Control of weed species LOLPE after post-emergence application (100=total damage to plant; 0=no damage to plant) (Lolium perenne (LOLPE); application rate 1000 g/Ha): 0; Control of weed species SETFA after post-emergence application (100=total damage to plant; 0=no damage to plant) (Setaria faberi (SETFA); application rate 1000 g/Ha): 30 |
| C[C@@H](C[n+]1ccc2ccccc2n1)NS(=O)(=O)[O-] [Compound A45, N-[(1S)-2-cinnolin-2-ium-2-yl-1-methyl-ethyl]sulfamate] | 100 | 80 | 80 | 40 | 100 | 100 | 60 | 60 | 80 |  |
| C[C@H](C[n+]1ccc2ccccc2n1)NS(=O)(=O)[O-] [Compound A46] | 100 | 70 | 70 | 30 | 90 | 100 | 70 | 40 | 60 |  |
| O=S(=O)([O-])N1CCC[C@H]1C[n+]1ccc2ccccc2n1 [Compound A47] | 100 | 60 | 90 | 30 | 90 | 60 | 20 | 10 | 40 |  |
| O=S(=O)([O-])C[n+]1ccc2ccccc2n1 [Compound A48, cinnolin-2-ium-2-ylmethanesulfonate] | 100 | 80 | 60 | 40 | 90 | 100 | 100 | 70 | 70 |  |
| C[C@H](CNS(=O)(=O)[O-])[n+]1ccc2ccccc2n1 [Compound A49] | 100 | 90 | 70 | 60 | 90 | 90 | 80 | 50 | 60 |  |
